Patent US12414940B2, “Method of treating malignant tumor by azabicyclic compound” (TAIHO PHARMACEUTICAL CO., LTD., priority 2018, dated 2025)

What was measured:
[1] = tested on: patients with local progressive unresectable or metastatic GIST; assay: Study in GIST patients: progression-free survival (RECIST Guideline Version 1.1); assay type: in vivo, human; conditions: 160 mg/body/day oral, 5 consecutive days and 2-day withdrawal period
Experimental: Purpose: In order to evaluate the effectiveness and safety, etc. of compound 1, this study was conducted for the purpose of evaluating the effectiveness and safety, etc. of the compound 1, targeting patients with local progressive unresectable or metastatic GIST who received the administration of imatinib, sunitinib or regorafenib in the past.
From the results of the study of Example 1, this study was carried out according to a schedule involving administration for 5 consecutive days and 2-day withdrawal period. The daily dose of the compound 1 was 160 mg/body/day for oral administration. One cycle was set to 21 days. The administration of the compound 1 was continued until the end date of the clinical trial or any of predetermined criterion for discontinuation were applicable.
For the evaluation of an antitumor effect, CT scan was carried out before the start of administration, every 3 weeks for subsequent 6 weeks, every 6 weeks for subsequent 3 months, and then every 8 weeks until the end of the test. Progression-free survival (PFS) stipulated by RECIST Guideline Version 1.1 was evaluated.

rat eye tissue = assay: Histopathological study in rat eye tissue (hematoxylin and eosin, TUNEL); assay type: in vivo, Sprague-Dawley (SD) rats
solid cancer patients [2] = assay: Phase I study in solid cancer patients: eye disorder related to treatment (ophthalmologic examination, CTCAE Ver. 4.03); assay type: in vivo
Experimental: The initial dose of Step 2 (level 1 of Step 2) was set to MTD (mg/m^2/day) of Step 1. The study was continued until the disease progressed or an intolerable adverse event occurred.
After determination of MTD for once-daily administration, administration was performed by once-daily administration, by alternate-day administration (repeated administration at cycles each involving one-day administration and one-day withdrawal period on the next day), or by a schedule involving administration for 5 consecutive days and 2-day withdrawal period, and evaluation was conducted.
In this test, ophthalmologic examination was conducted in order to evaluate eye disorder.
The ophthalmologic examination was carried out before enrollment, in the duration of administration, and during follow-up. In the duration of administration, ophthalmologic interview, visual acuity examination (corrected), intraocular pressure examination, fundus examination, slit-lamp microscopy, optical coherence tomography (OCT), and color perception examination were carried out for 21 days±1 day from the start of administration. Observation and examination before enrollment were carried out as immediately before the enrollment as possible. In addition to the determined ophthalmologic examination described above, ophthalmologic examination was appropriately carried out when eye problems were found by regular interview by clinical investigators or by declaration from patients themselves.

[3] = Quantification of plasma, tumor and retinal tissue exposure in tumor-bearing rats; assay type: in vivo, F344 nude rats
Experimental: After the administration, plasma, the retina, and tumor were collected according to a sampling schedule. The retina or tumor samples were homogenized in phosphate-buffered saline. The plasma and the homogenized samples were analyzed by liquid chromatography-tandem mass spectrometry or high-performance liquid chromatography. The pharmacokinetics of the compound 1 were calculated by use of the non-compartmental analysis method (Methods Mol Biol 2012; 929: 377-89).

solid cancer patients [4] = assay: Phase I study in solid cancer patients: determination of maximum tolerated dose (MTD); assay type: in vivo, human; conditions: for MTD: oral
Experimental: Purpose: This study was conducted for the purpose of determining a maximum tolerated dose (MTD) and estimating a recommended dose (RD) and an administration method when compound 1 was administered with one cycle set to 21 days targeting solid cancer patients, and of evaluating safety and observing an antitumor effect when the compound 1 was administered with one cycle set to 21 days targeting the patients, for example.
Method: The compound 1 was repeatedly administered between meals once a day in Step 1, and orally administered between meals every other day in Step 2. In Step 1, the initial dose was set to 4.8 mg/m^2 (level 1), and the dose of the compound 1 at each level was determined depending on a body surface area. The initial dose of Step 2 (level 1 of Step 2) was set to MTD (mg/m^2/day) of Step 1. The study was continued until the disease progressed or an intolerable adverse event occurred.
The dose (mg/body) to a study subject was calculated as described below. Dose (mg/body)=Dose (mg/m^2)×Body surface area (m^2)
The body surface area (BSA) was calculated to the second decimal place by rounding a value off to two decimal places using the formula of DuBois given below. The dose (mg/body) was calculated to an integer by rounding a value off to the closest whole number, and less than 2 mg was cut off because the minimum tablet dose in this study was 2 mg. BSA=([Body weight (kg)]0.425×[Body height (cm)]0.725)×0.007184

[5] = Quantification of plasma and retinal tissue exposure after intravenous administration; assay type: in vivo, F344 nude rats; conditions: 30 minutes and 6 hours after administration
Experimental: Method: Compound 1 was administered to tumor-bearing F344 nude rats by intravenous administration. Plasma and the retina were collected 30 minutes and 6 hours after the administration. The retina samples were homogenized in phosphate-buffered saline. The plasma and the homogenized samples were analyzed by liquid chromatography-tandem mass spectrometry or high-performance liquid chromatography. The pharmacokinetics of the compound 1 were calculated by use of the non-compartmental analysis method (Methods Mol Biol 2012; 929: 377-89).

[6] = 12 mg/kg/day oral every day for 2 weeks, eyes collected 24 hours after final dose
[7] = rats, administered for consecutive days (Non-Patent Literature 6)
[8] = QD Step 1 Dose escalation, Lv. 6 (107.5 mg/m^2) n = 6
[9] = QOD Step 2 Expansion (340 mg/body) n = 6
[10] = oral administration, tumor-bearing rats
[11] = administration for consecutive days

CCc1cc(C(N)=O)ccc1-n1nc(C(C)C)c2c(-n3cnc(-c4cnn(C)c4)c3)ccnc21 [compound 1, 3-Ethyl-4-[3-(1-methylethyl)-4-[4-(1-methyl-1H-pyrazol-4-yl)-1H-imidazol-1-yl]-1H-pyrazolo[3,4-b]pyridin-1-yl]benzamide]
median PFS [1]: 4.4 months
elevation of the number of TUNEL-positive apoptotic cells (rat eye tissue; [6]): not observed
histopathological change in the outer nuclear layer of the retina (rat eye tissue; [6]): did not cause any histopathological change
ocular toxicity (rat eye tissue; [7]): without exhibiting ocular toxicity
Eye Disorder, G2 (solid cancer patients [2]; QD Step 1 Dose escalation, Lv. 1 to 5 (4.8-76.8 mg/m^2) n = 7): 1 (14.3) n (%)
Eye Disorder, G2 (solid cancer patients [2]; [8]): 2 (33.3) n (%)
Eye disorder, G1 (solid cancer patients [2]; [8]): 3 (50.0) n (%)
Eye Disorder, ≥G3 (solid cancer patients [2]; QD Step 1 Dose escalation, Lv. 7 (150.5 mg/m^2) n = 3): 2 (66.7) n (%)
Eye disorder, G1 (solid cancer patients [2]; QD × 5 (5-day administration 2-day drug holiday) Step 1 Expansion (160 mg/body) n = 19): 5 (26.3) n (%)
Eye disorder, G1 (solid cancer patients [2]; QOD Step 2 Dose escalation, Lv. 1 to 2 (107.5-150.5 mg/m^2) n = 9): 2 (22.2) n (%)
Eye disorder, G1 (solid cancer patients [2]; QOD Step 2 Dose escalation, Lv. 3 (210.7 mg/m^2) n = 6): 1 (16.7) n (%)
Eye disorder, G1 (solid cancer patients [2]; QOD Step 2 Dose escalation, Lv. 4 (295.0 mg/m^2) n = 5): 1 (16.7) n (%)
Eye Disorder, G2 (solid cancer patients [2]; [9]): 1 (20.0) n (%)
Eye disorder, G1 (solid cancer patients [2]; [9]): 3 (60.0) n (%)
degree of eye disorder at MTD (solid cancer patients [2]; alternate-day administration group): limited to grade 1
degree of eye disorder at MTD (solid cancer patients [2]; group given administration for 5 consecutive days and 2-day withdrawal period): limited to grade 1
Eye Disorder, G2 (solid cancer patients [2]; human, in vivo): 4 (6.6) n (%)
Eye Disorder, ≥G3 (solid cancer patients [2]; human, in vivo): 2 (3.3) n (%)
Eye disorder, G1 (solid cancer patients [2]; human, in vivo): 14 (23.0) n (%)
side effect on vision (solid cancer patients [2]; phase I clinical trial, administration for consecutive days): caused a side effect for vision impairment
distribution in tumor, retina and plasma [3, 10]: larger amount in tumor than in the retina and plasma
time to removal from the retina [3, 10]: ≤ 24 h
time to elimination from the rat retina [3, 7]: ≤ 24 h
MTD converted to the fixed dose (solid cancer patients [4]; [11]): 160 mg/body/day
MTD (solid cancer patients [4]; [11]): 107.5 mg/m^2/day
MTD converted to the fixed dose (solid cancer patients [4]; alternate-day administration): 340 mg/body/day
MTD (solid cancer patients [4]; alternate-day administration): 210 mg/m^2/day
distribution in retina versus plasma [5]: lower in the retina than in plasma
